Laboratory results published in patent publication US9675592B2, “Methods and compositions for bacteria infections” (priority 2013, dated 2017).

Key:
[1] = target: PurC (unrelated protein, control) (Bacillus anthracis, UniProt Q81ZH5); type: binding; details: read-out: KD PurC (control)
[2] = target: cytoplasmic domain of VraS (VraS-C) (Staphylococcus aureus, UniProt Q99SZ7); experiment: biochemical; type: binding; details: for Kd / RUmax VraS: new run with His-tagged VraS; for Kd: NB = No Binding, read-out: KD VraS; for binding to VraS-C: SPR
cytoplasmic domain of VraS (VraS-C), sequence (Q99SZ7 70-347): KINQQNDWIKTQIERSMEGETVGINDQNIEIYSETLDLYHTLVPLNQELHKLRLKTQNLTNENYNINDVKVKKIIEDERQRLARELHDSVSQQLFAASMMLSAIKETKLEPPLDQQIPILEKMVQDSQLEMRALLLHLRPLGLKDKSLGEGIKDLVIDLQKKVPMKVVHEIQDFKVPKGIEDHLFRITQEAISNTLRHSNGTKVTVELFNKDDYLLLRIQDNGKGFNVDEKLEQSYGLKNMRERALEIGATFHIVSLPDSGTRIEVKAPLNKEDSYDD

[3] = target: VraR (Staphylococcus aureus, UniProt Q7A4R9); experiment: biochemical; type: binding; details: for Kd / RUmax VraR: His-tagged VraR; for Kd: NB = No Binding
VraR, sequence (Q7A4R9 whole entry): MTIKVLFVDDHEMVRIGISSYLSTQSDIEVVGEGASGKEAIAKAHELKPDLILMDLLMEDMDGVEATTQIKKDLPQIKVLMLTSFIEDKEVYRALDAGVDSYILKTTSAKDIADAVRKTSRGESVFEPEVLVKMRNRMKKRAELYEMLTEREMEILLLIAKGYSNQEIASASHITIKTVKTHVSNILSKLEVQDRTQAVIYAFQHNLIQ

[4] = test system: vraSR promoter (Pvra-lux reporter in strain 923); experiment: Primary screen, relative luminescence (vraSR expression)
[5] = test system: test strain 923 pPvra-lux (USA300 MRSA); experiment: Primary screen, relative growth in presence of oxacillin; details: compound 10 μM with oxacillin 2 μg/mL, absorbance 24 h, <0.50 = dead cells = hit

PurC (unrelated protein, control), sequence (Q81ZH5 whole entry, looked up, the tested form may be a part): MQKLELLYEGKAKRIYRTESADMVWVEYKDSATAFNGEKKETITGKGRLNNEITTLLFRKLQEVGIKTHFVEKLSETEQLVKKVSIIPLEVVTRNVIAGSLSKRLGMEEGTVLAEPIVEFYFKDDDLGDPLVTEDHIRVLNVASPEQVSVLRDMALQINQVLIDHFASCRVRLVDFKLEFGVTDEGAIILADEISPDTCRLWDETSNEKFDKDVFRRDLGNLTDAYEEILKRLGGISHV

Row | Structure (SMILES) | Kd [1] | Kd [2] | Kd [3] | RL avg (relative luminescence) [4] | binding to VraS-C [2] | RUmax VraS [2] | RUmax VraR [3] | RG avg (relative growth) [5] | binding to VraR ([3]; SPR)
1 | O=C(Nc1nnc(-c2ccc3c(c2)CCCC3)o1)c1cccc(C(F)(F)F)c1 [F0608-0575] | > 100 µM | > 100 µM | > 100 µM |  |  |  |  |  | 
2 | Cc1cc2c(C(C)C)c(O)c(O)c(C=O)c2c(O)c1-c1c(C)cc2c(C(C)C)c(O)c(O)c(C=O)c2c1O [Gos, Gossypol, reference compound] |  | > 100 µM | > 100 µM |  |  |  |  |  | 
3 | O=C(Nc1nnc(-c2ccc(Br)cc2)o1)c1ccc(Cl)s1 [F2518-0474] | > 100 µM | 79.5 ± 34.6 µM | 22.2 ± 5.4 µM | −0.01 | bound | 52.9 ± 12.8 | 27.5 ± 2.4 | 0.01 | 
4 | Cc1ccc(-c2nnc(NC(=O)c3ccccc3Cl)o2)c(C)c1 [F2518-0150] | > 100 µM | > 100 µM | > 100 µM |  |  |  |  |  | 
5 | O=C(Nc1nnc(-c2ccc(F)cc2)o1)c1nc2ccccc2s1 [F1374-0138] | > 100 µM | > 100 µM | > 100 µM |  |  |  |  |  | 
6 | O=C(Nc1nnc(-c2ccc(F)cc2)o1)c1cccc(Br)c1 [F1374-0119] | > 100 µM | > 100 µM | > 100 µM |  |  |  |  |  | 
7 | Cc1ccc(-c2nnc(NC(=O)c3nc4ccccc4s3)o2)c(C)c1 [F2518-0183] | > 100 µM | > 100 µM | > 100 µM |  |  |  |  |  | 
8 | Cc1ccc(C)c(-c2nnc(NC(=O)c3ccccc3F)o2)c1 [F2518-0382] | > 100 µM | > 100 µM | > 100 µM |  |  |  |  |  | 
9 | O=C(Nc1nnc(-c2ccc(Br)cc2)o1)c1sc2ccccc2c1Cl [F2518-0484] | > 100 µM | > 100 µM | > 100 µM |  |  |  |  |  | 
10 | O=C(Nc1nnc(-c2cc(Cl)ccc2Cl)o1)c1ccc(Cl)s1 [F2518-0042] | > 100 µM | > 100 µM | > 100 µM |  |  |  |  |  | 
11 | O=C(Nc1nnc(-c2cc(Cl)sc2Cl)o1)c1nc2ccccc2s1 [F1374-2739] | > 100 µM | 69.6 ± 11.6 µM | 54.4 ± 12.2 µM |  | bound | 69.1 ± 6.2 | 80.3 ± 8.8 |  | bound
12 | O=C(Nc1nnc(-c2ccc3c(c2)CCCC3)o1)c1nc2ccccc2s1 [F0608-0570] | > 100 µM | > 100 µM | > 100 µM |  |  |  |  |  | 
